Data reported in ChEMBL document CHEMBL3885861, “Open TG-GATES”.

Species on record: Rattus norvegicus
Test: Open TG-GATES - Regimen: Daily Repeat
Format: toxicity, organism-based, Sprague-Dawley
Design: regimen Daily Repeat, gender Male, age 6 weeks
Conditions: in vivo, po, 30 mg/kg, route gavage, dose level Low; for APTT / Bas / Eos / Fbg / Hb / Ht / Lym / MCH / MCHC / MCV / Mono / Neu / PT / Plat / RBC / Ret / WBC: tissue Blood; for KIDNEY_L / KIDNEY_R / KIDNEY_TOTAL: tissue Kidney; for LIVER: tissue Liver; for A/G / ALP / ALT / AST / BUN / CRE / Ca / Cl / DBIL / GLC / IP / K / LDH / Na / PL / RALB / TBIL / TC / TG / TP / gamma-GTP: tissue Plasma

## CCCNC(=O)NS(=O)(=O)c1ccc(Cl)cc1 [CHLORPROPAMIDE]
72 h, time 3 day
  TERMINAL_BW: 215.3 g
  APTT: 21.2 s
  Bas: 0%
  Eos: 1.2%
  Fbg: 265 mg/dL
  Hb: 13.2 g/dL
  Ht: 39.6%
  Lym: 80.6%
  MCH: 21.1 pg
  MCHC: 33.2%
  MCV: 63.3 fL
  Mono: 2.4%
  Neu: 15%
  PT: 15.8 s
  Plat: 116.1 x10_4/uL
  RBC: 626 x10_4/ul
  Ret: 7%
  WBC: 83.4 x10_2/uL
  KIDNEY_L: 0.9 g
  KIDNEY_R: 0.9 g
  KIDNEY_TOTAL: 1.8 g
  LIVER: 10.1 g
  A/G: 0.9
  ALP: 1696 IU/L
  ALT: 49.6 IU/L
  AST: 73.2 IU/L
  BUN: 17.8 mg/dL
  CRE: 0.2 mg/dL
  Ca: 10.6 mg/dL
  Cl: 106 meq/L
  DBIL: 0.01 mg/dL
  GLC: 174 mg/dL
  IP: 7.5 mg/dL
  K: 4.1 meq/L
  LDH: 80.8 IU/L
  Na: 143.2 meq/L
  PL: 151 mg/dL
  RALB: 2.6 g/dL
  TBIL: 0.024 mg/dL
  TC: 78.8 mg/dL
  TG: 108 mg/dL
  TP: 5.7 g/dL
  gamma-GTP: 1 IU/L
[…], time 7 day
  TERMINAL_BW: 245.8 g
  APTT: 19.1 s
  Bas: 0%
  Eos: 1%
  Fbg: 284.8 mg/dL
  Hb: 13.7 g/dL
  Ht: 41.3%
  Lym: 79.6%
  MCH: 21.3 pg
  MCHC: 33.2%
  MCV: 64.2 fL
  Mono: 1.8%
  Neu: 16.2%
  PT: 15.5 s
  Plat: 127.7 x10_4/uL
  RBC: 643 x10_4/ul
  Ret: 5.9%
  WBC: 95.2 x10_2/uL
  KIDNEY_L: 1 g
  KIDNEY_R: 1 g
  KIDNEY_TOTAL: 2 g
  LIVER: 11.3 g
  A/G: 0.8
  ALP: 1568.6 IU/L
  ALT: 42 IU/L
  AST: 66.8 IU/L
  BUN: 16.2 mg/dL
  CRE: 0.2 mg/dL
  Ca: 10.9 mg/dL
  Cl: 105.6 meq/L
  DBIL: 0.018 mg/dL
  GLC: 182.8 mg/dL
  IP: 7.4 mg/dL
  K: 3.9 meq/L
  LDH: 93.8 IU/L
  Na: 143.4 meq/L
  PL: 157.6 mg/dL
  RALB: 2.7 g/dL
  TBIL: 0.032 mg/dL
  TC: 76.4 mg/dL
  TG: 136.6 mg/dL
  TP: 5.8 g/dL
  gamma-GTP: 1 IU/L
[…], time 14 day
  TERMINAL_BW: 303 g
  APTT: 16.7 s
  Bas: 0%
  Eos: 0.8%
  Fbg: 263 mg/dL
  Hb: 14.3 g/dL
  Ht: 43.2%
  Lym: 79.6%
  MCH: 20.8 pg
  MCHC: 33.2%
  MCV: 62.7 fL
  Mono: 2.6%
  Neu: 15.6%
  PT: 16.1 s
  Plat: 107.2 x10_4/uL
  RBC: 688.6 x10_4/ul
  Ret: 4.6%
  WBC: 100.6 x10_2/uL
  KIDNEY_L: 1.2 g
  KIDNEY_R: 1.2 g
  KIDNEY_TOTAL: 2.4 g
  LIVER: 13.3 g
  A/G: 0.8
  ALP: 1602.6 IU/L
  ALT: 41.8 IU/L
  AST: 66.6 IU/L
  BUN: 18.6 mg/dL
  CRE: 0.2 mg/dL
  Ca: 10.6 mg/dL
  Cl: 103.6 meq/L
  DBIL: 0.012 mg/dL
  GLC: 204.8 mg/dL
  IP: 7.7 mg/dL
  K: 4 meq/L
  LDH: 123.6 IU/L
  Na: 142.6 meq/L
  PL: 155 mg/dL
  RALB: 2.6 g/dL
  TBIL: 0.028 mg/dL
  TC: 74.4 mg/dL
  TG: 143.8 mg/dL
  TP: 5.8 g/dL
  gamma-GTP: 0.8 IU/L
[…], time 28 day
  TERMINAL_BW: 389 g
  APTT: 18.8 s
  Bas: 0%
  Eos: 1%
  Fbg: 296.4 mg/dL
  Hb: 14.9 g/dL
  Ht: 45.1%
  Lym: 78.8%
  MCH: 19.4 pg
  MCHC: 33%
  MCV: 58.9 fL
  Mono: 2.8%
  Neu: 16.2%
  PT: 16 s
  Plat: 106.6 x10_4/uL
  RBC: 766.6 x10_4/ul
  Ret: 2.5%
  WBC: 98 x10_2/uL
  KIDNEY_L: 1.4 g
  KIDNEY_R: 1.4 g
  KIDNEY_TOTAL: 2.8 g
  LIVER: 16.1 g
  A/G: 0.8
  ALP: 1184 IU/L
  ALT: 39 IU/L
  AST: 64.8 IU/L
  BUN: 18.2 mg/dL
  CRE: 0.2 mg/dL
  Ca: 10.8 mg/dL
  Cl: 104.8 meq/L
  DBIL: 0.01 mg/dL
  GLC: 198.4 mg/dL
  IP: 6.7 mg/dL
  K: 3.6 meq/L
  LDH: 99.8 IU/L
  Na: 144.8 meq/L
  PL: 163.8 mg/dL
  RALB: 2.8 g/dL
  TBIL: 0.018 mg/dL
  TC: 77.8 mg/dL
  TG: 165.6 mg/dL
  TP: 6.2 g/dL
  gamma-GTP: 1.6 IU/L
